Measurements from US20160037772A1, “INCREASING ABIOTIC STRESS TOLERANCE IN PLANTS” (priority 2014, published 2016).

Tests used:
tomato plants = test: Field trial in tomato plants under heat, light and water stress (sunburn, yield, soluble solids); format: in vivo; settings: 6 applications
Protocol: The study was conducted on tomatoes in a commercial growing field in Botalcura, Talca, Chile. […]
For each two meters plot, plants were harvested during six test runs. The fruit were first evaluated visually: fruits with red color as adequate for industrial processing, fruits with green color as inadequate and inappropriate for industrial processing and fruits damaged by the sun as disposable. […]

apple trees = test: Field trial in apple trees under heat, light and water stress (sunburn, fruit size, yield); format: in vivo; settings: apples
Protocol: Field trials were conducted in commercial fields and orchards in Chile during the 2011-12 and 2012-13 growing seasons. The results were evaluated by measuring specific fruit parameters affected by abiotic stress including fruit diameter, fruit number, and amount of damage from heat or sunburn. The plants evaluated were apples and tomatoes. The plants in the trials received a conventional application of pesticides, under normal application conditions. The heat and light stress were considered important from the beginning of fruit development. High temperatures ranged between 30-35° C. ambient temperature measured by conventional methods in the shade from December to harvest.
Foliage and fruit were evaluated before and after treatments at regular intervals for signs of phytotoxicity. […] Furthermore, no signs of uncontrolled disease incidence was detected.
SUNCROPS, SUNCROPS PLUS, SCREEN DUO, and ECLIPSE are commercial treatments which are used in the management of abiotic stress. Kaolins and calcium carbonates reduce stress by reflecting the ultraviolet, visible and infrared rays, reducing the impact of excessive heat and light in photosynthesis and other essential plant cellular processes. The dicarboxylic acids, such as the azalaic acid in SUNCROPS PLUS, physiologically act by interacting on lipo-oxygenation processes and production of reactive oxygen species. (Greenberg et al. “The lipid whisker model of the structure of oxidized cell membranes.” J. Biol. Chem. 283, 2385-96, 2008)
The apple trees received six applications of each formulation at the dosages indicated in the “Dosage” column of Table 1. Tomato plants received biweekly treatments from fruit formation to fruit harvest (a total of 6 applications).
The different stages of fruit development correspond to (1) cell division (2) pit hardening (stone fruits only) (3) cell expansion and (4) fruit ripening. The start of the tests was done during the cell division phase. This phase corresponds to the period with increased susceptibility to damage from high temperatures, and can be correlated with increase in fruits having reduced size and decrease in the number of fruits per plant as a consequence of the abiotic stress due to high temperatures.
Early season heat, light and/or water stress can prevent cell division that occurs during phase (1) of the development of apple fruits.
Testing with apples was conducted in Rancagua, Sixth Region; Chile. The tree fruit load was standardized at a value of about 220 fruits per tree; ±3%, thus eliminating the variability generated by different loads of fruit on the trees. To assess damage from sunburn related to heat and water stress, 100% of the apples were harvested from the tree in each test unit and were classified according to the following scheme shown in Table 2.
Table 2. Classification scheme based on visual evaluation of the fruit • 0 No visible presence of sunburn • 1 Presence of slight yellowing of the skin (<7% of the surface of the fruit); exportable commercial fruit. • 2 Presence of strong yellowing of the skin (>7% of the surface of the fruit); exportable commercial fruit. • 3 Presence of moderate sunburn skin, no commercial fruit, suitable only for juice or related industry. • 4 Presence of significant sunburn skin, no harvestable fruit unmarketable.
The variables measured were: fruit diameter (mm), percentage of sunburn (number of fruits belonging to grades 1 or 2), size of the fruit (measured as weight in grams). The total fruit yield of the tree and the commercial yield (amount of commercial grade fruits, grades 1 or 2) was also measured.

O=CCCCCCCCC(=O)O [ONA, 9-Oxononanoic acid]
Soluble solids (tomato plants): 6.4 °Brix | Fruit diameter (apple trees; Rancagua, Chile, six applications at Table 1 dosage, about 220 fruits per tree): 40.63 mm | Effectiveness in protection of fruit compared with commercial treatments (apple trees; cell division stage): more effective than commercial treatments | Yield commercial (apple trees; commercial grade fruits (grades 1 or 2), six applications): 49.7 kg/tree | Size (apple trees; fruit weight, six applications): 146 g/apple | Yield total (apple trees; six applications): 53.9 kg/tree | Percent fruit of grades 1 or 2 (apple trees; visual sunburn grading scheme of Table 2, six applications): 88.25%
